Experimental data: patent US9725445B2, “Cycloalkyl nitrile pyrazolo pyridones as Janus kinase inhibitors” (Merck Sharp & Dohme Corp., priority 2013, dated 2017)

The molecules below were run against JAK2 (Homo sapiens (Human), UniProt O60674) (assay: Jak biochemical HTRF assay, JAK2). Conditions: HTRF biochemical assay, recombinant GST-tagged catalytic domain; read-out: JAK2 IC50.
Protocol: Jak Biochemical HTRF Assay Protocol
The ability of compounds to inhibit the activity of JAK1, JAK2, JAK3, and Tyk2 was measured using a recombinant purified GST-tagged catalytic domain for each enzyme (Invitrogen JAK1 #M4290, JAK2 #M4290, JAK3 #M4290, Tyk2 #M4290) in an HTRF format biochemical assay. […] The basic assay protocol is as follows: First, 250 nL of diluted compounds in DMSO were dispensed into the wells of a dry 384-well Black plate (Greiner #781076) using a Labcyte Echo 555 acoustic dispenser. Subsequent reagent additions employed an Agilent Bravo. […] After equilibration, 2 μL of 10×ATP in 1× assay buffer was added to initiate the kinase reaction and the plates were shaken and then incubated at room temperature for 120 minutes. […] Plates were shaken and centrifuged and then incubated 60 minutes at room temperature and then read on a Perkin Elmer Envision (λex=337 nm, λem=665 and 615 nm, TRF delay time=20 μs). HTRF signal=10,000*665 nm reading/615 nm reading. After normalization to untreated controls, the percent inhibition of the HTRF signal at each compound concentration was calculated. The plot of percent inhibition versus the log of compound concentration was fit with a 4-parameter dose response equation to calculate IC50 values.
Final Reaction Conditions were:
Examples of the instant invention were evaluated in JAK1 and JAK2 in vitro binding assays.

Chain of JAK2 (O60674 849-1124): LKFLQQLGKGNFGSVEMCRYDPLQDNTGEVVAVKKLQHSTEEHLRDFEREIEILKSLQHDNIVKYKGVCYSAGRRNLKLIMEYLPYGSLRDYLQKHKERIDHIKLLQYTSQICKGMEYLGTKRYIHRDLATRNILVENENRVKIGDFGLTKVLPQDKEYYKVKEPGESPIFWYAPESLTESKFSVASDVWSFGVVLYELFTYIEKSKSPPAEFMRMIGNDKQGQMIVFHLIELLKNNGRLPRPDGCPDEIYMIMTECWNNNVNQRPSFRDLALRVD

Row | Compound | IC50
1 | N#C[C@H]1CCCC[C@@H]1n1nc(Nc2ccc(F)c(CN)c2)c2c(=O)[nH]ccc21 [Example 6-2, (1S,2S)-2-(3-((3-(aminomethyl)-4-fluorophenyl)amino)-4-oxo-4,5-dihydro-1H-pyrazolo[4,3-c]pyridin-1-yl)cyclohexanecarbonitrile] | 2.3 nM
2 | N#C[C@H]1CCCC[C@@H]1n1nc(Nc2ccc3c(c2)CNC3C(F)F)c2c(=O)[nH]ccc21 (single isomer, unassigned) [Example 15-28, (1S,2S)-2-(3-{[(1S or 1R)-1-(difluoromethyl)-2,3-dihydro-1H-isoindol-5-yl]amino}-4-oxo-4,5-dihydro-1H-pyrazolo[4,3-c]pyridin-1-yl)cyclohexanecarbonitrile] | 0.63 nM
3 | Cn1ccc(NC(=O)Cc2cccc(Nc3nn([C@H]4CCCC[C@@H]4C#N)c4cc[nH]c(=O)c34)c2)n1 [Example 3-11, 2-[3-({1-[(1S,2S)-2-cyanocyclohexyl]-4-oxo-4,5-dihydro-1H-pyrazolo[4,3-c]pyridin-3-yl}amino)phenyl]-N-(1-methyl-1H-pyrazol-3-yl)acetamide] | 3.3 nM
4 | CC(C)(C)S(=O)(=O)c1ccc(Nc2nn([C@@H]3CC(F)(F)C[C@H]3C#N)c3cc[nH]c(=O)c23)cc1 (single isomer, unassigned) [Example 22-3, (1R,2R or 1S,2S)-2-(3-{[4-(tert-butylsulfonyl)phenyl]amino}-4-oxo-4,5-dihydro-1H-pyrazolo[4,3-c]pyridin-1-yl)-4,4-difluorocyclopentanecarbonitrile] | 17 nM
5 | N#C[C@H]1CCCCC[C@@H]1n1nc(Nc2ccc3c(c2)CN(C2CCCC2)C3=O)c2c(=O)[nH]ccc21 (single isomer, unassigned) [Example 15-50, (1S,2S or 1R,2R)-2-{3-[(2-cyclopentyl-1-oxo-2,3-dihydro-1H-isoindol-5-yl)amino]-4-oxo-4,5-dihydro-1H-pyrazolo[4,3-c]pyridin-1-yl}cycloheptanecarbonitrile] | 14 nM
6 | CC(C)S(=N)(=O)c1ccc(Nc2nn(C3CCC[C@@H]3C#N)c3cc[nH]c(=O)c23)cc1 (single isomer, unassigned) [Example 3-108, (1S,2S)-2-[3-({4-[(S or R)-S-(1-methylethyl)sulfonimidoyl]phenyl}amino)-4-oxo-4,5-dihydro-yl]cyclopentanecarbonitrile] | 0.5 nM
7 | N#C[C@H]1CCCC[C@@H]1n1nc(Nc2ccc(C(O)C(F)F)cc2)c2c(=O)[nH]ccc21 (mixture of isomers) [Example 10-1, Racemic-(1S,2S)-2-(3-((4-(2,2-difluoro-1-hydroxyethyl)phenyl)amino)-4-oxo-4,5-dihydro-1H-pyrazolo[4,3-c]pyridin-1-yl)cyclohexanecarbonitrile] | 0.61 nM
8 | CC(O)(c1ccc(Nc2nn([C@H]3CCC[C@@H]3C#N)c3cc[nH]c(=O)c23)cc1)C(F)(F)F (single isomer, unassigned) [Example 3-138, (1S,2S)-2-[4-oxo-3-({4-[(1R or 1S)-2,2,2-trifluoro-1-hydroxy-1-methylethyl]phenyl}amino)-4,5-dihydro-1H-pyrazolo[4,3-c]pyridin-1-yl]cyclopentanecarbonitrile] | 0.66 nM
9 | N#C[C@H]1CCCC[C@@H]1n1nc(Nc2ccc3c(c2)CCNC3)c2c(=O)[nH]ccc21 [Example 3-156, (1S,2S)-2-[4-oxo-3-(1,2,3,4-tetrahydroisoquinolin-6-ylamino)-4,5-dihydro-1H-pyrazolo[4,3-c]pyridin-1-yl]cyclohexanecarbonitrile] | 2.6 nM
10 | CC(C)(C)S(=O)(=O)c1ccc(Nc2nn([C@H]3CC(F)(F)C[C@H]3C#N)c3cc[nH]c(=O)c23)cc1 (single isomer, unassigned) [Example 22-1, (1R,2S or 1S,2R)-2-(3-((4-(tert-Butylsulfonyl)phenyl)amino)-4-oxo-4,5-dihydro-1H-pyrazolo[4,3-c]pyridin-1-yl)-4,4-difluorocyclopentanecarbonitrile] | 3.5 nM
11 | CC(C)(C)S(=O)(=O)c1ccc(Nc2nn([C@@H]3CC(F)(F)C[C@@H]3C#N)c3cc[nH]c(=O)c23)cc1 (single isomer, unassigned) [Example 22-2, (1S,2R or 1R,2S)-2-(3-((4-(tert-Butylsulfonyl)phenyl)amino)-4-oxo-4,5-dihydro-1H-pyrazolo[4,3-c]pyridin-1-yl)-4,4-difluorocyclopentanecarbonitrile] | 21 nM
12 | N#C[C@H]1C[C@H](N2CCC2)CC[C@@H]1n1nc(Nc2ccc(Cl)cc2)c2c(=O)[nH]ccc21 [Example 5-17, (1S,2S,5R)-5-(azetidin-1-yl)-2-(3-((4-chlorophenyl)amino)-4-oxo-4,5-dihydro-1H-pyrazolo[4,3-c]pyridin-1-yl)cyclohexanecarbonitrile] | 33 nM
13 | C[C@H](N[C@@H]1CC[C@H](n2nc(Nc3ccc(Cl)c(F)c3)c3c(=O)[nH]ccc32)[C@@H](C#N)C1)C1CC1 [Example 5-5, (1S,2S,5R)-2-(3-((4-chloro-3-fluorophenyl)amino)-4-oxo-4,5-dihydro-1H-pyrazolo[4,3-c]pyridin-1-yl)-5-(((S)-1-cyclopropylethyl)amino)cyclohexanecarbonitrile] | 113 nM
14 | N#C[C@H]1C[C@@H](N2CCC2)CC[C@@H]1n1nc(Nc2ccc(Cl)cc2)c2c(=O)[nH]ccc21 [Example 5-18, (1S,2S,5S)-5-(azetidin-1-yl)-2-(3-((4-chlorophenyl)amino)-4-oxo-4,5-dihydro-1H-pyrazolo[4,3-c]pyridin-1-yl)cyclohexanecarbonitrile] | 13 nM

More lines, now with the values ahead:

Row | IC50 | Compound
15 | 0.2 nM | CC(C)NC(c1ccc(Nc2nn([C@H]3CCC[C@@H]3C#N)c3cc[nH]c(=O)c23)cc1)C(F)(F)F (single isomer, unassigned) [Example 3-116, (1S,2S)-2-{4-oxo-3-[(4-{(1S or 1R)-2,2,2-trifluoro-1-[(1-methylethyl)amino]ethyl}phenyl)amino]-4,5-dihydro-1H-pyrazolo[4,3-c]pyridin-1-yl}cyclopentanecarbonitrile]
16 | 0.3 nM | N#C[C@@H]1CCCCC[C@H]1n1nc(Nc2ccc3c(c2)CN(C2CCCC2)C3=O)c2c(=O)[nH]ccc21 (single isomer, unassigned) [Example 15-52, (1R,2R or 1S,2S)-2-{3-[(2-cyclopentyl-1-oxo-2,3-dihydro-1H-isoindol-5-yl)amino]-4-oxo-4,5-dihydro-1H-pyrazolo[4,3-c]pyridin-1-yl}cycloheptanecarbonitrile]
17 | 0.47 nM | CC(C)S(=N)(=O)c1ccc(Nc2nn(C3CCC[C@@H]3C#N)c3cc[nH]c(=O)c23)cc1 (single isomer, unassigned) [Example 3-109, (1S,2S)-2-[3-({4-[(S or R)-S-(1-methylethyl)sulfonimidoyl]phenyl}amino)-4-oxo-4,5-dihydro-1H-pyrazolo[4,3-c]pyridin-1-yl]cyclopentanecarbonitrile]
18 | 0.35 nM | CC(C)(C)S(=O)(=O)c1ccc(Nc2nn([C@H]3CC(F)(F)C[C@@H]3C#N)c3cc[nH]c(=O)c23)cc1 (single isomer, unassigned) [Example 22-4, (1S,2S or 1R,2R)-2-(3-{[4-(tert-butylsulfonyl)phenyl]amino}-4-oxo-4,5-dihydro-1H-pyrazolo[4,3-c]pyridin-1-yl)-4,4-difluorocyclopentanecarbonitrile]
19 | 0.26 nM | N#C[C@H]1CCCC[C@@H]1n1nc(Nc2ccc3c(c2)C(O)C2(CCCCC2)S3(=O)=O)c2c(=O)[nH]ccc21 (single isomer, unassigned) [Example 3-175, (1S,2S)-2-(3-{[(3R or 3S)-3-hydroxy-1,1-dioxido-3H-spiro[1-benzothiophene-2,1′-cyclohexan]-5-yl]amino}-4-oxo-4,5-dihydro-1H-pyrazolo[4,3-c]pyridin-1-yl)cyclohexanecarbonitrile]
20 | 0.27 nM | CC(C)C(c1ccc(Nc2nn([C@H]3CCCC[C@@H]3C#N)c3cc[nH]c(=O)c23)cc1)n1ccnn1 (single isomer, unassigned) [Example 15-24, (1S,2S)-2-[3-({4-[(1S or 1R)-2-methyl-1-(1H-1,2,3-triazol-1-yl)propyl]phenyl}amino)-4-oxo-4,5-dihydro-1H-pyrazolo[4,3-c]pyridin-1-yl]cyclohexanecarbonitrile]
21 | 0.25 nM | CC(C)C(c1ccc(Nc2nn([C@H]3CCCC[C@@H]3C#N)c3cc[nH]c(=O)c23)cc1)n1ccnn1 (single isomer, unassigned) [Example 15-23, (1S,2S)-2-[3-({4-[(1R or 1S)-2-methyl-1-(1H-1,2,3-triazol-1-yl)propyl]phenyl}amino)-4-oxo-4,5-dihydro-1H-pyrazolo[4,3-c]pyridin-1-yl]cyclohexanecarbonitrile]
22 | 0.49 nM | N#C[C@H]1CCCC[C@@H]1n1nc(Nc2ccc3c(c2)C(O)C2(CCCCC2)S3(=O)=O)c2c(=O)[nH]ccc21 (single isomer, unassigned) [Example 3-174, (1S,2S)-2-(3-{[(3S or 3R)-3-hydroxy-1,1-dioxido-3H-spiro[1-benzothiophene-2,1′-cyclohexan]-5-yl]amino}-4-oxo-4,5-dihydro-1H-pyrazolo[4,3-c]pyridin-1-yl)cyclohexanecarbonitrile]

The molecules below were run against JAK1 (Homo sapiens (Human), UniProt P23458) (assay: Jak biochemical HTRF assay, JAK1). Conditions: HTRF biochemical assay, recombinant GST-tagged catalytic domain; read-out: JAK1 IC50.
Chain of JAK1 (P23458 875-1153): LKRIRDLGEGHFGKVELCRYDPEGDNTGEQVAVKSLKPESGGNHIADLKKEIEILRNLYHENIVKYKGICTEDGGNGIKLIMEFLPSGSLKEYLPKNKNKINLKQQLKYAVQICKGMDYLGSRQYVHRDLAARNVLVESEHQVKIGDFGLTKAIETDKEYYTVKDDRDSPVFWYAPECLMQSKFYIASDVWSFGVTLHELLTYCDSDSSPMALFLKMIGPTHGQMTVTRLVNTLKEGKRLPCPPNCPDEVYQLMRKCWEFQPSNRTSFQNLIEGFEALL

Row | IC50 | Compound
23 | 0.75 nM | N#C[C@H]1CCCC[C@@H]1n1nc(Nc2ccc(F)c(CN)c2)c2c(=O)[nH]ccc21 [Example 6-2, (1S,2S)-2-(3-((3-(aminomethyl)-4-fluorophenyl)amino)-4-oxo-4,5-dihydro-1H-pyrazolo[4,3-c]pyridin-1-yl)cyclohexanecarbonitrile]
24 | 0.25 nM | N#C[C@H]1CCCC[C@@H]1n1nc(Nc2ccc3c(c2)CNC3C(F)F)c2c(=O)[nH]ccc21 (single isomer, unassigned) [Example 15-28, (1S,2S)-2-(3-{[(1S or 1R)-1-(difluoromethyl)-2,3-dihydro-1H-isoindol-5-yl]amino}-4-oxo-4,5-dihydro-1H-pyrazolo[4,3-c]pyridin-1-yl)cyclohexanecarbonitrile]
25 | 0.41 nM | Cn1ccc(NC(=O)Cc2cccc(Nc3nn([C@H]4CCCC[C@@H]4C#N)c4cc[nH]c(=O)c34)c2)n1 [Example 3-11, 2-[3-({1-[(1S,2S)-2-cyanocyclohexyl]-4-oxo-4,5-dihydro-1H-pyrazolo[4,3-c]pyridin-3-yl}amino)phenyl]-N-(1-methyl-1H-pyrazol-3-yl)acetamide]
